Results taken from patent publication US4559362A, “Immunopotentiator” (Zaidan Hojin Biseibutsu Kagaku Kenkyu Kai, priority 1982, dated 1985).
In brackets after ≈: the same amount, converted by molar mass. Like-named read-outs stand apart in the source and are kept apart here.

Tests used:
L-1210 cells = test: Growth inhibitory effect on cultured L-1210 cells; type: cell-based; settings: Mus musculus, L1210, 48 hours, 37° C., read-out: concentration at which 50% of the original cells were inhibited from growth
Protocol: A study was conducted on the growth inhibitory effect of spermidine on cultures of IMC cancer cells and L-1210 cells. IMC cancer cells were cultured in an RPMI 1640 medium containing 10% bovine fetus serum and 2-mercaptoethanol, and L-1210 cells in an MEM medium containing 10% calf serum, for 48 hours at 37° C. in 5% carbon dioxide. The number of cultured cells was counted with a Coulter counter to evaluate the degree of cell proliferation. Spermidine was added at the start of incubation.

IMC carcinoma = test: Antitumor effect on IMC carcinoma transplanted subcutaneously into CDF1 mice; type: in vivo; settings: for Weight of tumor ± S.D.: 10 times on alternative days, day 30, in mg (unit assumed)
Protocol: (§1) The pharmacological effects of spermidine will be illustrated by reference to the following experimental examples, in which spermidine was administered as its phosphate dissolved in physiological saline.
(a) The antitumor effect of spermidine was investigated on IMC carcinoma successively transplanted into CDF1 mice and on S180 sarcoma transplanted into ICR mice. 1×10^6 tumor cells of each of the above type were transplanted subcutaneously into such mice (Day 0). From Day 1 onwards, spermidine was intraperitoneally injected a total of 10 times (once daily on alternative days). Thirty days after transplantation of tumor cells, the tumor was removed and weighed to evaluate the effect of spermidine.

IMC ascites tumor = test: Concomitant treatment with bleomycin and spermidine on IMC ascites tumor, survival; type: in vivo, CDF1 mice
Protocol: as §1
(c) 1×10^6 IMC cancer cells were transplanted into CDF1 mice by intraperitoneal injection (Day 0). Bleomycin (5 mg/kg) was administered once daily for 5 consecutive days, and spermidine (5 mg/kg) was administered a total of 10 times on alternative days. The effect of concomitant treatment with spermidine and the anticancer drug was evaluated by considering the number of days that the mice survived.

[1] = Toxicity given intravenously to mice; type: in vivo; settings: 250 mg/kg intravenously
Protocol: Spermidine used in this invention has a very low toxicity. It is not toxic at a dose of 250 mg/kg when given intravenously to mice.

[2] = system: alternative pathway of the complement system; test: Activation of the alternative pathway of the complement system (hemolysis of rabbit blood cells in normal human serum); type: biochemical; settings: for % consumption of complement component C3: 37° C., 60 minutes
Protocol: The effect of spermidine on the activation of the alternative pathway of the complement system was investigated in accordance with the method of Platts-Mills and Ishizaka (Platt-Mills, T. A. E. and Ishizaka, K.: Activation of the alternative pathway of human complement by rabbit cells. J. Immune. 113, 348-358, 1974).
Spermidine was added to normal human serum in EGTA buffer solution, and the mixture was heated at 37° C. for 60 minutes. Rabbit blood cells were then added to the mixture. The degree of hemolysis was measured with a spectrophotometer at 412 nm to evaluate the effect of spermidine.

[3] = system: interleukine-2 production (Thymocytes); test: Interleukine-2 production by spleen cells, activity of promoting the division of thymocytes; type: cell-based, CDF1 mice; settings: for activity at 0.001 µg/mL / activity at 0.01 µg/mL / activity at 0.1 µg/mL / activity at 1 µg/mL: Mus musculus, Thymocyte, 24 h, control = 100, read-out: ^3 H-thymidine incorporation, Thymocytes; for activity at 0.001 µg/mL: 0.001 μg/ml; for activity at 0.01 µg/mL: 0.01 μg/ml; for activity at 0.1 µg/mL: 0.1 μg/ml; for activity at 1 µg/mL: 1 μg/ml
Protocol: The effect of spermidine on the production of interleukine was investigated in accordance with the method of Larsson et al. (Larsson, E-L: Mechanism of T cell activation II. Antigen- and lectin-dependent acquisition of responsiveness to TCGF is a nonmitogenic, active response of resting T cells. J. Immunol. 126, 1323-1326, 1981).
Spermidine in a varying concentration was added to 1×10^7 spleen cells/ml of CDF1 mice. In the presence or absence of added concanavalin A (2 μg/ml), the stimulant of interleukine-2 production, the cells were then cultured in a cell incubator kept at 37° C. and at a carbon dioxide concentration of 5% for 24 hours. After completion of the incubation, α-methylmannoside was added to the supernatant to inactivate concanavalin A. The supernatant was collected to examine its interleukine-2 activity. The interleukine-2 activity was determined by the activity of promoting the proliferation of T blast cells and the activity of promoting the division of thymocytes. The latter two activities were determined by measuring ^3 H-thymidine incorporations to both types of cells.

mouse leukemia L-1210 = test: Survival of CDF1 mice transplanted with mouse leukemia L-1210; type: in vivo; settings: for Increase of life span: control = 100, mice surviving 60 days excluded
Protocol: as §1
(b) 1×10^2 mouse leukemia L-1210 cells were transplanted into CDF1 mice by subcutaneous injection (Day 0). From Day 1 onwards, 0.5 to 5 mg/kg of spermidine was administered in total of 10 times, once daily on alternative days, to investigate on the number of days the mice survived.

[4] = 5 mg/kg, 10 times on alternative days

Compound: NCCCCNCCCN [Spermidine, spermidine]
- IC50 (L-1210 cells): 2.8 µg/mL (≈ 19.3 µM)
- % inhibition (weight of tumor) (IMC carcinoma; 0.05 mg/kg/day i.p.): 26%
- Weight of tumor ± S.D. (IMC carcinoma; 0.05 mg/kg/day i.p.): 5112 ± 2263
- % inhibition (weight of tumor) (IMC carcinoma; 0.5 mg/kg/day i.p.): 58%
- Weight of tumor ± S.D. (IMC carcinoma; 0.5 mg/kg/day i.p.): 2893 ± 964
- % inhibition (weight of tumor) (IMC carcinoma; 5 mg/kg/day i.p.): 40%
- Weight of tumor ± S.D. (IMC carcinoma; 5 mg/kg/day i.p.): 4125 ± 1852
- % inhibition (weight of tumor) (IMC carcinoma; 50 mg/kg/day i.p.): 44%
- Weight of tumor ± S.D. (IMC carcinoma; 50 mg/kg/day i.p.): 3886 ± 1351
- Survival rate on Day 60 (IMC ascites tumor; spermidine (5 mg/kg) alone): 0/10
- Survival period (IMC ascites tumor; spermidine (5 mg/kg) alone, 10 times on alternative days): 20.1 ± 2.3 days
- Increase of life span (IMC ascites tumor; spermidine (5 mg/kg) alone, control = 100): 114%
- life span increase against the control group (IMC ascites tumor; spermidine alone): 14%
- toxicity [1]: not toxic
- % consumption of complement component C3 ([2]; 2 mg/ml): 0%
- % consumption of complement component C3 ([2]; 4 mg/ml): 66.1%
- % consumption of complement component C3 ([2]; 8 mg/ml): 83.6%
- activation of the alternative pathway of complement ([2]; 4 to 8 mg/ml): clearly activates the alternative pathway of complement
- optimal concentration (interleukin-2 production) [3]: 0.1 µg/mL
- activity at 0.001 µg/mL ([3]; with Con A (2 μg/ml)): 126%
- activity at 0.001 µg/mL ([3]; without Con A): 171%
- activity at 0.01 µg/mL ([3]; with Con A (2 μg/ml)): 130%
- activity at 0.01 µg/mL ([3]; without Con A): 255%
- activity at 0.1 µg/mL ([3]; with Con A (2 μg/ml)): 149%
- activity at 0.1 µg/mL ([3]; without Con A): 281%
- activity at 1 µg/mL ([3]; with Con A (2 μg/ml)): 135%
- activity at 1 µg/mL ([3]; without Con A): 90%
- Survival rate on Day 60 (mouse leukemia L-1210; 0.5 mg/kg): 1/10
- Survival period (mouse leukemia L-1210; 0.5 mg/kg, 10 times on alternative days): 16.0 ± 3.1 days
- Increase of life span (mouse leukemia L-1210; 0.5 mg/kg): 109%
- Survival rate on Day 60 (mouse leukemia L-1210; 5 mg/kg): 3/10
- Survival period (mouse leukemia L-1210; [4]): 15.2 ± 2.2 days
- complete remission (mouse leukemia L-1210; [4]): 3 out of 10
- Increase of life span (mouse leukemia L-1210; 5 mg/kg): 104%
